Test results published in patent US6087358A (priority 1997, dated 2000).
Converted amounts (≈) assume the structure as drawn.

Assays:
[1] = test system: Mycobacterium bovis BCG (recombinant strain); assay: microbe, parasite or virus in culture; type: cell-based; settings: Mycobacterium tuberculosis variant bovis BCG, BCG, 144 h; 6 days 37° C.; read-out: MIC, column A, 3(S) compounds
[2] = test system: Mycobacterium tuberculosis (rMTB); assay: In vivo antimycobacterial activity against M. tuberculosis (rMTB) in spleens of mice; parameters: species or system Mycobacterium tuberculosis Erdman, in female BALB/c mice; settings: 25 mg/kg daily oral gavage, CM-2, 10 days, control 422,866 (PA-824, 636, 1297) or 362,274 (others)
[3] = test system: Mycobacterium bovis (rBCG-lux); assay: microbe, parasite or virus in culture; type: cell-based, Mycobacterium bovis bacille Calmette Guerin; settings: Mycobacterium tuberculosis variant bovis, 72 h; read-out: % of control, measured in RLUs
[4] = test system: M. tuberculosis H37 Rv in human THP-1 macrophages; assay: In vitro activity against M. tuberculosis in human macrophages (luciferase bioluminescence); type: cell-based, Mycobacterium tuberculosis, in human THP-1 cells
Cryptosporidium parvum = assay: Inhibition of Cryptosporidium parvum (ELISA, infected HCT-8 monolayers); type: cell-based
Protocol: Susceptibility testing against Cryptosporidium was performed according to published procedures (K. Woods, M. Nesterenko, S. Upton, "Development of a microtiter ELISA to quantify development of Cryptosporidium parvum in vitro," FEMS Microbiology Letters, 128:89-94 (1995).
Compounds were solubilized to a concentration of 100 mg/mL in 100% DMSO. DMSO solutions of test compounds were added to the test wells of a microplate at a volume that produced a final concentration of DMSO of 0.2%. Monolayers of human ileocecal adenocarcinoma cells (HCT-8) were prepared by growth in RPMI 1640 medium in 96-Well tissue culture trays for 24 h. Oocysts of C. parvum were allowed to excyst in 10% bleach for 10 min prior to use. Monolayers were then infected with 2-3×10^4 oocysts/well and incubated in the presence or absence of compound for 48 h at 35° C. in 5% CO2 and 95% humidity. Background consisted of wells containing killed oocysts (freeze thaw cycle following 30 sec exposure to liquid nitrogen). Growth control wells were infected with 2-3×10^4 oocysts/well in the absence of test compounds. At the end of incubation, wells were washed and fixed by adding 100 uL of 4% formalin in phosphate buffered saline (pH 7.3) per well for 2 h. After blocking with 1% bovine serum albumin, and 0.002% Tween 20, 50 uL of rat anti-Cryptosporidium membrane protein antiserum was added. After 30 min, wells were washed in PBS and 50 uL of secondary antibody (goat anti-rat antibody conjugated with horseradish peroxidase) was added. After 20-30 min, wells were washed again in PBS and 50 uL of 3,3',5,5'-tetramethylbenzidine solution was added. Plates were allowed to develop for 10-15 min and the optical density was read at 630 nm. Percent inhibition was calculated by comparing the optical density of the drug treated group to that of the untreated control.

[5] = test system: Helicobacter pylori Strain 4187E; assay: In vivo activity against Helicobacter pylori strain 4187E in mice; parameters: species or system in outbred female white mice; settings: oral gavage, four days
Source text: Outbred female white mice (20 grams) were infected by oral gavage with 10^7 -10^8 colony forming units of H. pylori strain 4187E (originally isolated from a patient with a duodenal ulcer). […] Treatment continued for four days. Clarithromycin, administered at the same concentration and for the same duration, was included as a positive control. One group of animals also received an equal volume of formulation vehicle alone, to provide a negative control.
Five days after cessation of treatment, all animals were sacrificed, the stomachs were removed, opened, and the contents washed out. The entire mucosal surface was then spread evenly over the surface of an agar plate containing antibiotics appropriate for the prevention of growth of microorganisms other than Helicobacter spp. After seven days incubation under microaeropilic conditions at 37° C., culture plates were evaluated for bacterial growth.

Helicobacter felis = assay: In vivo activity against Helicobacter felis in mice (urease test of stomach biopsy); parameters: species or system in female CD-1 mice; settings: 50 mg/kg three times daily oral gavage, CM-2, four days; vehicle and untreated 100
Protocol: Female CD-1 mice weighing 30 grams were infected by oral gavage with 10^8 -10^9 colony forming units of H. felis. This infection process was repeated two, and four days, thereafter. Colonization of the stomach was allowed to occur over a seven day period. Animals were segregated into groups of five, and were treated three times daily by oral gavage with 50 mg/kg of test drugs prepared in the CM-2 formulation vehicle (Example 52). Treatment continued for four days. One group of animals received an equal volume of formulation vehicle alone, to ensure that the vehicle had no effect on the Helicobacter infection. A separate untreated control group was also included.
All animals were then sacrificed, the stomachs were removed, opened, and the contents washed out. A five millimeter diameter biopsy was removed, and transferred to a urease test solution containing a pH-sensitive dye, which was then incubated at 37° C. incubator for 24 hours. A blue or purple coloration in this test solution signifies a positive reaction, indicating the continued presence of viable Helicobacter bacteria; a negative result is indicated by a yellow coloration. Viable Helicobacter bacteria produce a urease enzyme which converts urea, of which there is an abundant supply in the stomach (from saliva and gastric juices), into bicarbonate and ammonia, which are strong bases. This mechanism is considered to provide conditions more amenable to the survival of Helicobacter in the otherwise acidic conditions prevalent in the stomach.

Compound: O=[N+]([O-])c1cn2c(n1)OC[C@@H](OCc1ccc(OC(F)(F)F)cc1)C2 [PA-824, 3S 4-(Trifluromethoxy)benzyloxy-6-nitro-2H-3,4-dihydro-[2-1b]imidazopyran]
- MIC [1]: 0.06 µg/mL (≈ 0.167 µM)
- Average RLUs, M. tuberculosis (rMTB) in spleens [2]: 53,540 RLUs
- activity at 0.15 µg/mL [3]: 29.4%
- activity at 0.31 µg/mL [3]: 12.3%
- activity at 0.62 µg/mL [3]: 0.6%
- activity at 1.25 µg/mL [3]: 0.3%
- activity at 2.5 µg/mL [3]: 0.2%
- activity at 5 µg/mL [3]: 0.1%
- RLU values ([4]; 0.06 μg/mL, day 1): 25856 RLU
- RLU values ([4]; 0.06 μg/mL, day 2): 93959 RLU
- RLU values ([4]; 0.06 μg/mL, day 3): 109301 RLU
- RLU values ([4]; 0.06 μg/mL, day 4): 118318 RLU
- RLU values ([4]; 0.06 μg/mL, day 7): 138792 RLU
- RLU values ([4]; 0.13 μg/mL, day 1): 16904 RLU
- RLU values ([4]; 0.13 μg/mL, day 2): 40573 RLU
- RLU values ([4]; 0.13 μg/mL, day 3): 29162 RLU
- RLU values ([4]; 0.13 μg/mL, day 4): 27802 RLU
- RLU values ([4]; 0.13 μg/mL, day 7): 28699 RLU
- RLU values ([4]; 0.25 μg/mL, day 1): 15814 RLU
- RLU values ([4]; 0.25 μg/mL, day 2): 18064 RLU
- RLU values ([4]; 0.25 μg/mL, day 3): 13413 RLU
- RLU values ([4]; 0.25 μg/mL, day 4): 8684 RLU
- RLU values ([4]; 0.25 μg/mL, day 7): 6437 RLU
- RLU values ([4]; 0.5 μg/mL, day 1): 10021 RLU
- RLU values ([4]; 0.5 μg/mL, day 2): 9610 RLU
- RLU values ([4]; 0.5 μg/mL, day 3): 6579 RLU
- RLU values ([4]; 0.5 μg/mL, day 4): 5068 RLU
- RLU values ([4]; 0.5 μg/mL, day 7): 2957 RLU
- RLU values ([4]; 1.0 μg/mL, day 1): 8197 RLU
- RLU values ([4]; 1.0 μg/mL, day 2): 5588 RLU
- RLU values ([4]; 1.0 μg/mL, day 3): 3950 RLU
- RLU values ([4]; 1.0 μg/mL, day 4): 2686 RLU
- RLU values ([4]; 1.0 μg/mL, day 7): 1986 RLU
- RLU values ([4]; 2.0 μg/mL, day 1): 4571 RLU
- RLU values ([4]; 2.0 μg/mL, day 2): 3833 RLU
- RLU values ([4]; 2.0 μg/mL, day 3): 2567 RLU
- RLU values ([4]; 2.0 μg/mL, day 4): 1507 RLU
- RLU values ([4]; 2.0 μg/mL, day 7): 1217 RLU
- minimal effective concentration ([4]; Mycobacterium tuberculosis, H37RV, human THP-1 macrophages, read-out: concentrations sufficient to prevent intracellular growth of M. tuberculosis): ≥ 0.25 µg/mL
- dose-related response ([4]; concentrations up to 2.0 μg/ml): A clear dose-related response
- dose-related response (Cryptosporidium parvum; C. parvum growth): A clear dose-related response
- IC50 (Cryptosporidium parvum; Cryptosporidium parvum, HCT-8): 25 µg/mL (≈ 69.6 µM)
- inhibition at 5 µg/mL (Cryptosporidium parvum; Cryptosporidium parvum, HCT-8, 5 μg/mL, 48 h, read-out: Percent Inhibition of C. parvum): 3.1%
- inhibition at 10 µg/mL (Cryptosporidium parvum; Cryptosporidium parvum, HCT-8, 10 μg/mL, 48 h, read-out: Percent Inhibition of C. parvum): 17%
- inhibition at 20 µg/mL (Cryptosporidium parvum; Cryptosporidium parvum, HCT-8, 20 μg/mL, 48 h, read-out: Percent Inhibition of C. parvum): 40%
- inhibition at 25 µg/mL (Cryptosporidium parvum; Cryptosporidium parvum, HCT-8, 25 μg/mL, 48 h, read-out: Percent Inhibition of C. parvum): 52%
- inhibition at 50 µg/mL (Cryptosporidium parvum; Cryptosporidium parvum, HCT-8, 50 μg/mL, 48 h, read-out: Percent Inhibition of C. parvum): 93%
- inhibition at 100 µg/mL (Cryptosporidium parvum; Cryptosporidium parvum, HCT-8, 100 μg/mL, 48 h, read-out: Percent Inhibition of C. parvum): 87%
- % Eradication ([5]; once daily 25 mg/kg): 0%
- % Eradication ([5]; twice daily 5 mg/kg): 10%
- % Eradication ([5]; twice daily 50 mg/kg): 100%
- % Survival (Helicobacter felis): 40%
